Source: patent EP0569083A1, “New quinazolines as inhibitors of HIV reverse transcriptase” (priority 1992, dated 1993)
Where two headings read alike, the source gives them in different places.

Columns and labels:
[1] = target: T1, recombinant HIV reverse transcriptase (HIV RTR) (Human immunodeficiency virus type 1 group M subtype B, UniProt P04585); experiment: Reverse transcriptase assay (incorporation of tritiated dGMP into acid-precipitable cDNA); assay type: biochemical
T1 construct: recombinant HIV reverse transcriptase (HIV RTR); made in house; host or cells: bacteria (E. coli is named only for the purified heterodimer control)
Description: (§1) The assay measures the incorporation of tritiated deoxyguanosine monophosphate by recombinant HIV reverse transcriptase (HIV RTR) (or other RT) into acid-precipitable cDNA at the Km values of dGTP and poly r(C)·oligo d(G)₁₂₋₁₈.
(§2) The assays were carried out in 55 mM Tris (pH 8.2)-30 mM KCl-30 mM MgCl₂-1 mM dithiothreitol-20 µg of rC:dG₁₂₋₁₈ (Pharmacia) per ml-8 µM [³H]dGTP (New England Nuclear)-0.01% Triton X-100-50 µM ethylene glycol-bis(β-amino-ethyl ether)-N,N,N',N'-tetraacetic acid (EGTA)-1 mg of bovine serum albumin per ml. After 60 min of incubation at 37°C, acid-precipitable material was collected onto glass fiber filters by using a semiautomatic cell harvester. Bacterial cell extracts containing RT were diluted to within the linear range of the assay, and activity was determined in the presence and absence of inhibitor. Purified HIV-1 RT heterodimer produced in E. coli also served as a control.

A17 RT = target: T2, A17 RT (Human immunodeficiency virus type 1 group M subtype B, UniProt P04585, K690N/Y768C); experiment: Reverse transcriptase assay, double (DBL) mutant; assay type: biochemical, HIV
T2 construct: A17 RT was employed in the assay; made in house; host or cells: bacteria
Description: as §1, §2
For the double (DBL) mutant assay, A17 RT was employed in the assay. A17 RT is resistant to various aminopyridones, as described in Nunberg, J.H. et al., J. Virol. 65, 4887 (1991).

[2] = recombinant HIV RT, 60 min at 37°C, read-out: IC50

Row | SMILES | IC50 [1] [nM] | IC50 (A17 RT) [nM] | IC50 [1, 2] [nM] | IC50 (A17 RT; A17 RT (double mutant, resistant to aminopyridones), read-out: IC50DBL Mutant) [nM]
1 | O=C1Nc2ccc(Cl)cc2C(C#Cc2ccccc2[N+](=O)[O-])(C2CC2)N1 (stereo not drawn) [Compound 25, 6-Chloro-4-cyclopropyl-3,4-dihydro-4-(2-nitrophenylethynyl)quinazolin-2(1H)-one] | 10.5 | 390 |  | 
2 | O=C1Nc2ccc(Cl)cc2C(C#Cc2cccnc2)(C2CC2)N1 (stereo not drawn) [Compound 12, 6-chloro-4-cyclopropyl-3,4-dihydro-4-((3-pyridyl)ethynyl)quinazolin-2(1H)-one] | 84 | 310 |  | 
3 | CN1C(=O)Nc2ccc(Cl)cc2C1(C#Cc1ccccn1)C1CC1 (stereo not drawn) [Compound 10, 6-chloro-4-cyclopropyl-3,4-dihydro-3-methyl-4-((2-pyridyl)ethynyl)quinazolin-2(1H)-one] | 21 | 87 |  | 
4 | O=C1Nc2ccc(Cl)cc2[C@@](C#Cc2ccccn2)(C2CC2)N1 [Compound 26, 6-chloro-4(S)-cyclopropyl-3,4-dihydro-4-((2-pyridyl)ethynyl)quinazolin-2(1H)-one] | 7 | 400 |  | 
5 | C=CC#CC1(C2CC2)c2cc(Cl)ccc2NC(=O)N1C (stereo not drawn) [Compound 21, 4-(3-buten-1-ynyl)-6-chloro-4-cyclopropyl-3,4-dihydro-3-methylquinazolin-2(1H)-one] | 4.3 | 248 |  | 
6 | O=C1Nc2ccc(Cl)cc2C(C#Cc2ccccc2)(C2CC2)N1 (stereo not drawn) [Compound 23, 6-chloro-4-cyclopropyl-3,4-dihydro-4-(phenylethynyl)quinazolin-2(1H)-one] | 6.1 | 135 |  | 
7 | O=C1Nc2ccc(Cl)cc2C(C#Cc2cncnc2)(C2CC2)N1 (stereo not drawn) [Compound 14, 6-chloro-4-cyclopropyl-3,4-dihydro-4-((5-pyrimidinyl)ethynyl)quinazolin-2(1H)-one] | 1750 | 3000 |  | 
8 | O=C1Nc2ccc(Cl)cc2C(C#Cc2cnccn2)(C2CC2)N1 (stereo not drawn) [Compound 16, 6-chloro-4-cyclopropyl-3,4-dihydro-4-((2-pyrazinyl)ethynyl)quinazolin-2(1H)-one] |  | 9000 | 270 | 
9 | COCC#CC1(C2CC2)NC(=O)Nc2ccc(Cl)cc21 (stereo not drawn) [Compound 1, 6-chloro-4-cyclopropyl-3,4-dihydro-4-(3-methoxy-1-propynyl)quinazolin-2(1H)-one] | 49 | 7300 |  | 
10 | CN1C(=O)Nc2ccc(Cl)cc2C1(C#CCO)C1CC1 (stereo not drawn) [Compound 22, 6-Chloro-4-cyclopropyl-3,4-dihydro-4-(3-hydroxy-1-propynyl)-3-methylquinazolin-2(1H)-one] | 255 |  |  | 
11 | CN1C(=O)Nc2ccc(Cl)cc2C1(C#CCOc1cc[n+]([O-])cc1)C1CC1 (stereo not drawn) [Compound 18, 6-chloro-4-cyclopropyl-3,4-dihydro-3-methyl-4-(3-(4-(N-oxopyridyl)oxy)-1-propynyl)quinazolin-2(1H)-one] |  |  | 9400 | 65000
12 | O=C1Nc2ccc(Cl)cc2C(C#Cc2ncccn2)(C2CC2)N1 (stereo not drawn) [Compound 15, 6-chloro-4-cyclopropyl-3,4-dihydro-4-((2-pyrimidinyl)ethynyl)quinazolin-2(1H)-one] |  | 8800 | 130 | 
13 | CN1C(=O)Nc2ccc(Cl)cc2C1(C#CCn1ccnc1)C1CC1 (stereo not drawn) [Compound 20, 6-chloro-4-cyclopropyl-3,4-dihydro-4-(3-(1-imidazolyl)-1-propynyl)-3-methylquinazolin-2(1H)-one] | 620 | 960 |  | 
14 | CN1C(=O)Nc2ccc(Cl)cc2C1(C#CCN=[N+]=[N-])C1CC1 (stereo not drawn) [Compound 7, 4-(3-azido-1-propynyl)-6-chloro-4-cyclopropyl-3,4-dihydro-3-methylquinazolin-2(1H)-one] | 20 | 1750 |  | 
15 | CN1C(=O)Nc2ccc(Cl)cc2C1(C#CCOCC(F)(F)F)C1CC1 (stereo not drawn) [Compound 3, 6-chloro-4-cyclopropyl-3,4-dihydro-3-methyl-4-(3-(2,2,2-trifluoroethoxy)-1-propynyl)quinazolin-2(1H)-one] | 19 | 2600 |  | 
16 | O=C1Nc2ccc(Cl)cc2C(C#Cc2ccncc2)(C2CC2)N1 (stereo not drawn) [Compound 13, 6-chloro-4-cyclopropyl-3,4-dihydro-4-((4-pyridyl)ethynyl)quinazolin-2(1H)-one] | 470 | 3000 |  | 
17 | CN1C(=O)Nc2ccc(Cl)cc2C1(C#CCCCl)C1CC1 (stereo not drawn) [Compound 6, 6-chloro-4-(4-chloro-1-butynyl)-4-cyclopropyl-3,4-dihydro-3-methylquinazolin-2(1H)-one] | 7 | 250 |  | 
18 | CN1C(=O)Nc2ccc(Cl)cc2C1(C#CCOc1ccncc1)C1CC1 (stereo not drawn) [Compound 17, 6-chloro-4-cyclopropyl-3,4-dihydro-3-methyl-4-(3-(4-pyridyloxy)-1-propynyl)quinazolin-2(1H)-one] | 165 | 3900 |  | 
19 | CN1C(=O)Nc2ccc(Cl)cc2C1(C#CCF)C1CC1 (stereo not drawn) [Compound 8, 6-chloro-4-cyclopropyl-4-(3-fluoro-1-propynyl)-3,4-dihydro-3-methylquinazolin-2(1H)-one] | 24 | 2900 |  | 
20 | CN1C(=O)Nc2ccc(Cl)cc2C1(C#CCOc1ccccn1)C1CC1 (stereo not drawn) [Compound 24, 6-Chloro-4-cyclopropyl-3,4-dihydro-3-methyl-4-(3-(2-pyridyloxy)-1-propynyl)quinazolin-2(1H)-one] | 125 | 4900 |  | 
21 | COCC#CC1(C2CC2)c2cc(Cl)ccc2NC(=O)N1C (stereo not drawn) [Compound 2, 6-chloro-4-cyclopropyl-3,4-dihydro-3-methyl-4-(3-methoxy-1-propynyl)quinazolin-2(1H)-one] | 13 | 700 |  | 
22 | O=C1Nc2ccc(Cl)cc2C(C#CCCF)(C2CC2)N1 (stereo not drawn) [Compound 5, 6-chloro-4-cyclopropyl-4-(4-fluoro-1-butynyl)-3,4-dihydroquinazolin-2(1H)-one] | 31 | 3500 |  | 
23 | CN1C(=O)Nc2ccc(Cl)cc2C1(C#CCN1CCOCC1)C1CC1 (stereo not drawn) [Compound 19, 6-chloro-4-cyclopropyl-3,4-dihydro-3-methyl-4-(3-(4-morpholinyl)-1-propynyl)quinazolin-2(1H)-one] | 1000 | 22000 |  | 
24 | CN1C(=O)Nc2ccc(Cl)cc2C1(C#CCCF)C1CC1 (stereo not drawn) [Compound 4, 6-chloro-4-cyclopropyl-4-(4-fluoro-1-butynyl)-3,4-dihydro-3-methylquinazolin-2(1H)-one] | 7 | 230 |  | 
25 | CN(C)CC#CC1(C2CC2)c2cc(Cl)ccc2NC(=O)N1C (stereo not drawn) [Compound 9, 6-chloro-4-cyclopropyl-3,4-dihydro-3-methyl-4-(3-(N,N-dimethylamino)-1-propynyl)quinazolin-2(1H)-one] | 54 | 273 |  | 
26 | O=C1Nc2ccc(Cl)cc2C(C#Cc2ccccn2)(C2CC2)N1 (racemic) [Compound 11, 6-chloro-4-cyclopropyl-3,4-dihydro-4-((2-pyridyl)ethynyl)quinazolin-2(1H)-one] | 19 | 635 |  | 
